Like-named read-outs stand apart in the source and are kept apart here. Blank lines part the entries; values can stand above or below the compound they belong to.
Key:
[1] = human, in vivo
Experimental: Subjects received multiple oral doses of an IR formulation of IMB-1018972 or placebo once every 12 hours (q12h) for 14 consecutive days.
The doses were selected based upon the safety, tolerability, and PK data from the SAD part: • Group B1 multiple oral doses of an IR formulation of 150 mg IMB-1018972 (n=9) or matching placebo (n=3) twice daily (q12h) for 14 days; on Day 14 only a single morning dose was administered • Group B2: multiple oral doses of an IR formulation of 50 mg IMB-1018972 (n=9) or matching placebo (n=3) q12h for 14 days; on Day 14 only a single morning dose was administered
Before each morning dose, subjects fasted overnight for at least 10 hours following a snack on the evening before. On Days 1 and 14, subjects received a standardized breakfast that had to be consumed within 20 minutes. Dosing occurred at 30 minutes after the start of breakfast. Following dosing, subjects fasted for 4 hours until lunch. During fasting, fluids other than water were not allowed. On Days 2 to 13, breakfast was not standardized and was given within maximally 1 hour before dosing and consumed before dosing. No fasting after dosing was applicable on these days.
On all dosing days, an evening snack was given within maximally 1 hour before dosing and consumed before dosing.

clinical [2] = conditions: in vivo, po
Experimental: Before dosing (on Days 1, 4, 7, and 10 in the single-dose MR part), subjects fasted overnight for at least 10 hours following a light supper on the evening before. Following dosing, subjects fasted for 4 hours until lunch. During fasting, fluids other than water were not allowed; however, water was not allowed from 2 hours predose until 1 hour postdose (apart from the water taken with the dose).
The AUCs were calculated using the linear up/log down trapezoidal rule, expressed in units of concentration×time.
Subjects with R2 below 0.80 or % AUCextra>20% were not excluded from the dose-proportionality evaluation based on AUC0-inf. A point estimate and 95% CI were produced for the slope. […] Since there were only 2 dose levels in the MAD part, no dose-proportionality analysis was performed for the MAD part.

[3] = FIH study, SAD part: PK in urine
[4] = human, in vivo, po
[5] = human, in vivo, 200 mg
Experimental: On Day 13, subjects received a FDA-defined high-fat breakfast that had to be consumed within 20 minutes. […] Following dosing, subjects fasted for 4 hours until lunch. During fasting, fluids other than water were not allowed. Subjects were not allowed to lie down for 4 hours after dosing, except when required for assessments that needed to be performed.

[6] = human, in vivo; remark: listed apart in the source
[7] = FIH study, FE arm of SAD part: effect of food on plasma PK (150 mg IMB-1018972); conditions: human, in vivo
Experimental: Subjects assigned to Group A4 also participated in the FE arm and received the same single dose of IMB-1018972 or placebo under fed conditions (Food and Drug Administration [FDA]-defined high-fat breakfast after an overnight fast of at least 10 hours) in a second period at least 1 week after drug administration under fasted conditions in the SAD part.
Then, subjects received an FDA-defined high-fat breakfast that had to be consumed within 20 minutes. The entire breakfast had to be consumed by the subjects. […] Following dosing, subjects fasted for 4 hours until lunch. During fasting, fluids other than water were not allowed.
For the second period of Group A4 in the FE arm, and for Day 13 of the single-dose MR part, the FDA-defined high-fat breakfast of 918 kcal consisted of: • 2 fried eggs (in 15 g butter/margarine) (approximately 100 g) • 1 portion of bacon (40 g) (or brie 60+ for vegetarians) • 1 portion of fried potatoes (115 g) • 2 slices of (toasted) (wheat) bread (approximately 70 g) with 15 g margarine • 1 glass of whole milk (240 mL) The total of 918 kcal (vegetarian version 915 kcal) could be broken down as follows: • 39 g protein=156 kcal • 59 g fat=527 kcal • 59 g carbohydrates=235 kcal Blinding

clinical [8] = conditions: human, in vivo, po

Geometric mean Cmax lower on Day 1 after 150 mg fed in the MAD part than after single 150 mg fed in the SAD part [1]: 32%
Time at which detectable plasma concentrations were generally seen (clinical [2]; human): 15 to 30 min
Primary clearance mechanism ([3]; concluded from urinary excretion): renal excretion
Renal handling (CLR greater than glomerular filtration rate, 7.5 L/h) ([3]; in vivo): net tubular secretion
Arithmetic mean percent of the dose excreted in urine as trimetazidine ([3]; within 48 hours after single oral 35 mg trimetazidine): 54.47%
AUC0-t higher after the 8-hour MR formulation than after the 4-hour MR formulation [4]: 4%
AUC0-t lower after the 8-hour MR formulation than after the 4-hour MR formulation [4]: 12%
SMILES: COc1ccc(CN2CCNCC2)c(OC)c1OC [trimetazidine, reference compound]

Geometric mean Cmax higher on Day 1 after 150 mg fed in the MAD part than after single 150 mg fed in the SAD part [1]: 97%
Time at which detectable plasma concentrations were generally seen (clinical [2]; human): 15 to 30 min
Tmax (clinical [2]; human): ~1 h
half-life (clinical [2]; human): 2.6 to 3 h
Tmax (clinical [2]; human, 50 mg): 0.5 to 1.02 h
Fashion of elimination (clinical [2]): biphasic
Cmax higher after high-fat breakfast relative to fasted conditions [5]: approximately 42%
Effect of food on AUC0-inf: estimate (fed relative to fasted) [5]: 1.16
Effect of food on AUC0-t: estimate (fed relative to fasted) [5]: 1.16
Effect of food on Cmax: estimate (fed relative to fasted) [5]: 1.42
Primary clearance mechanism [6]: metabolism
Cmax lower after high-fat breakfast relative to fasted conditions [7]: approximately 36%
Effect of food on AUC0-inf: estimate (fed relative to fasted) [7]: 1.12
Effect of food on AUC0-t: estimate (fed relative to fasted) [7]: 1.12
Effect of food on Cmax: estimate (fed relative to fasted) [7]: 0.64
Tmax ([7]; Median tmax): 1 h
CL renal (clinical [8]): 62.7 to 89.5 mL/min
AUC0-t higher after the 8-hour MR formulation than after the 4-hour MR formulation [4]: 6%
AUC0-t lower after the 8-hour MR formulation than after the 4-hour MR formulation [4]: 26%
SMILES: COc1ccc(CN2CCN(CCO)CC2)c(OC)c1OC [IMB-1028814, 2-[4-[(2,3,4-trimethoxyphenyl)methyl]piperazin-1-yl]ethanol]

From patent US12285428B2 (IMBRIA PHARMACEUTICALS, INC., priority 2021, dated 2025)
